From patent publication US10849854B2, “Process for preparing a composition comprising a high concentration of one or more avermectins” (GALDERMA SA, priority 2015, dated 2020)

Test: Solubility of ivermectin in propylene glycol/oleyl alcohol (1/1) solubilizing medium
Type: physicochemical
Conditions: mixed propylene glycol/oleyl alcohol (1/1) solubilizing medium
From the text: Although these prior attempts have allowed formulating ivermectin in emulsions which remain stable despite temperature and/or pH variations, it has been observed that the amount of ivermectin that could be introduced into these emulsions was limited. Specifically, at most 33% by weight of ivermectin can be fully dissolved in a mixed propylene glycol/oleyl alcohol (1/1) solubilizing medium. Beyond this concentration, ivermectin tends to crystallize in the active phase before the emulsion is prepared and/or in the resulting emulsion, optionally when subjected to freeze/thaw cycles. Increasing the amount of glycols in the emulsion would raise other issues, since the emulsion stability would be detrimentally affected and the emulsion would become too sticky to be commercially acceptable. Therefore, from a practical point of view, it has not been possible so far to formulate emulsions comprising 2% or more by weight of ivermectin, which remains fully dissolved ivermectin over the time.

ivermectin
Amount of ivermectin that can be fully dissolved: at most 33 % by weight
